From PubChem BioAssay AID256 (DTP/NCI, 2004)
“And” between values parts separate entries of the source, which are not always exact repeats. Equal entries are not always repeated. Inconclusive results and toxic doses are left out. The calls were made as follows: active = survival T/C of 150% or more; inactive = T/C below 125% in these data.

Test system: CD2F1 mice, L1210 leukemia ip, survival T/C
Experiment: NCI In Vivo Anticancer Drug Screen. Data for tumor model L1210 Leukemia (intraperitoneal) in CD2F1 (CDF1) mice
Conditions: endpoint: mean survival time, higher = longer survival
Summary of the method: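 In this screen, transplantable tumors were grown in mice given either the compound or its vehicle. Results were expressed as the treated measurement relative to the control measurement.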

[1] = dose: 100.0 mg/kg/injection, schedule: Q01DX001 (ip), vehicle: saline
[2] = dose: 200.0 mg/kg/injection, schedule: Q01DX001 (ip), vehicle: saline
[3] = dose: 400.0 mg/kg/injection, schedule: Q01DX001 (ip), vehicle: saline
[4] = dose: 100.0 mg/kg/injection, schedule: Q04DX003 (ip), vehicle: saline
[5] = dose: 100.0 mg/kg/injection, schedule: Q01DX009 (ip), vehicle: Klucel (hydroxypropylcellulose) (HPC)
[6] = dose: 200.0 mg/kg/injection, schedule: Q01DX009 (ip), vehicle: Klucel (hydroxypropylcellulose) (HPC)
[7] = dose: 100.0 mg/kg/injection, schedule: Q04DX003 (ip), vehicle: Klucel (hydroxypropylcellulose) (HPC)
[8] = dose: 100.0 mg/kg/injection, schedule: Q01DX009 (ip), vehicle: saline with Tween-80
[9] = dose: 200.0 mg/kg/injection, schedule: Q01DX009 (ip), vehicle: saline with Tween-80
[10] = dose: 400.0 mg/kg/injection, schedule: Q01DX009 (ip), vehicle: saline with Tween-80
[11] = dose: 12.5 mg/kg/injection, schedule: Q01DX009 (ip), vehicle: Klucel (hydroxypropylcellulose) (HPC)
[12] = dose: 50.0 mg/kg/injection, schedule: Q01DX009 (ip), vehicle: Klucel (hydroxypropylcellulose) (HPC)
[13] = dose: 50.0 mg/kg/injection, schedule: Q01DX009 (ip), vehicle: saline with Tween-80
[14] = dose: 100.0 mg/kg/injection, schedule: Q04DX003 (ip), vehicle: saline with Tween-80
[15] = dose: 200.0 mg/kg/injection, schedule: Q04DX003 (ip), vehicle: saline with Tween-80
[16] = dose: 400.0 mg/kg/injection, schedule: Q04DX003 (ip), vehicle: saline with Tween-80
[17] = dose: 75.0 mg/kg/injection, schedule: Q01DX001 (ip), vehicle: saline
[18] = dose: 150.0 mg/kg/injection, schedule: Q01DX001 (ip), vehicle: saline
[19] = dose: 400.0 mg/kg/injection, schedule: Q01DX001 (ip), vehicle: saline with Tween-80

Measured: T/C

CC1=[C-]C=CS1=O.[C-]#[O+].[C-]#[O+].[C-]#[O+].[Mo].[c-]1[c-][c-][cH-][c-]1 (centres undefined)
inactive: dose: 9.38 mg/kg/injection, schedule: Q04DX002 (ip), vehicle: saline with Tween-80 96 % of control | dose: 18.7 mg/kg/injection, schedule: Q04DX002 (ip), vehicle: saline with Tween-80 96 % of control | dose: 37.5 mg/kg/injection, schedule: Q04DX002 (ip), vehicle: saline with Tween-80 100 % of control

COc1ccc2nc3cc(Cl)ccc3c(NCCC[N+](C)(C)CCCCCCCCCC[N+](C)(C)CCCNc3c4ccc(Cl)cc4nc4ccc(OC)cc34)c2c1
inactive: dose: 6.25 mg/kg/injection, schedule: Q01DX009 (ip), vehicle: saline with Tween-80 105 % of control

O=C(O)C(O)c1ccccc1 (centres undefined)
inactive: dose: 100.0 mg/kg/injection, schedule: Q04DX002 (ip), vehicle: saline 101 % of control | dose: 200.0 mg/kg/injection, schedule: Q04DX002 (ip), vehicle: saline 114 % of control

NC(=O)NC(S(=O)(=O)O)S(=O)(=O)O
inactive: [1] 96 % of control | [2] 101 % of control | [3] 101 % of control

CCCCNCCCC
inactive: [4] 97 % of control

CCOS(=O)(=O)c1ccc(N)c([N+](=O)[O-])c1
inactive: dose: 100.0 mg/kg/injection, schedule: Q01DX001 (ip), vehicle: Klucel (hydroxypropylcellulose) (HPC) 100 % of control | [5] 100 % of control | dose: 200.0 mg/kg/injection, schedule: Q01DX001 (ip), vehicle: Klucel (hydroxypropylcellulose) (HPC) 111 % of control | [6] 100 % of control | dose: 400.0 mg/kg/injection, schedule: Q01DX001 (ip), vehicle: Klucel (hydroxypropylcellulose) (HPC) 100 % of control

NNC(=O)c1ccc(N)cc1
inactive: [7] 95 % of control

Cc1nc(Cl)c2cnccn12
inactive: dose: 12.5 mg/kg/injection, schedule: Q04DX003 (ip), vehicle: saline 96 % of control | dose: 25.0 mg/kg/injection, schedule: Q04DX003 (ip), vehicle: saline 100 % of control | dose: 50.0 mg/kg/injection, schedule: Q04DX003 (ip), vehicle: saline 104 % of control

CCCCCCCCCC(=O)Nc1ccc(C(=O)OCC)cc1
inactive: [8] 95 % of control | [9] 97 % of control | [10] 98 % of control

C(C#CCN1CCOCC1)#CCN1CCOCC1
inactive: dose: 6.25 mg/kg/injection, schedule: Q01DX009 (ip), vehicle: Klucel (hydroxypropylcellulose) (HPC) 96 % of control | [11] 91 % of control | dose: 12.5 mg/kg/injection, schedule: Q01DX009 (ip), vehicle: saline with Tween-80 95 % of control and 101 % of control | dose: 25.0 mg/kg/injection, schedule: Q01DX009 (ip), vehicle: Klucel (hydroxypropylcellulose) (HPC) 100 % of control | dose: 25.0 mg/kg/injection, schedule: Q01DX009 (ip), vehicle: saline with Tween-80 95 % of control and 98 % of control | [12] 105 % of control | [13] 93 % of control and 95 % of control | [5] 100 % of control | [8] 88 % of control and 90 % of control and 96 % of control | [14] 102 % of control | [6] 91 % of control | [9] 95 % of control (2×) and 96 % of control | [15] 96 % of control | dose: 400.0 mg/kg/injection, schedule: Q01DX009 (ip), vehicle: Klucel (hydroxypropylcellulose) (HPC) 97 % of control | [10] 95 % of control and 100 % of control and 101 % of control | [16] 102 % of control

CC(Cc1ccccc1)NC1=NCCO1 (centres undefined)
inactive: [13] 96 % of control | [8] 104 % of control | [14] 104 % of control and 98 % of control and 89 % of control | [9] 93 % of control | [15] 91 % of control and 87 % of control | [16] 86 % of control

CCOP(OCC)SSCn1nc2ccc3ccccc3n2c1=O
inactive: [11] 100 % of control | dose: 25.5 mg/kg/injection, schedule: Q01DX009 (ip), vehicle: Klucel (hydroxypropylcellulose) (HPC) 95 % of control | [12] 113 % of control

c1ccc(CN=NNc2ccccc2)cc1
inactive: [17] 94 % of control | [18] 100 % of control | dose: 300.0 mg/kg/injection, schedule: Q01DX001 (ip), vehicle: saline 103 % of control

CN(C)CCC(=O)C(c1ccccc1)c1ccccc1
inactive: [17] 97 % of control | [18] 101 % of control

COc1ccc(S(=O)(=O)NCCN(C)C)cc1NC(C)=O
inactive: [1] 90 % of control | [2] 93 % of control | [3] 100 % of control

CC(=O)C(C)C(C)=O
inactive: [8] 105 % of control | [9] 107 % of control | [10] 102 % of control

O=c1ssc2ccccc12
inactive: [14] 101 % of control | [15] 101 % of control | [16] 98 % of control

COc1ccc(-c2nc(N)nc3c2CN(CCCC(=O)O)C3=O)cc1
inactive: [4] 98 % of control | dose: 200.0 mg/kg/injection, schedule: Q04DX003 (ip), vehicle: saline 98 % of control | dose: 400.0 mg/kg/injection, schedule: Q04DX003 (ip), vehicle: saline 96 % of control

O=C/C(Cl)=C(/Cl)C(=O)O
inactive: dose: 1.25 mg/kg/injection, schedule: Q01DX009 (ip), vehicle: saline with Tween-80 100 % of control | dose: 2.5 mg/kg/injection, schedule: Q01DX009 (ip), vehicle: saline with Tween-80 98 % of control | dose: 5.0 mg/kg/injection, schedule: Q01DX009 (ip), vehicle: saline with Tween-80 108 % of control | dose: 6.25 mg/kg/injection, schedule: Q04DX002 (ip), vehicle: saline with Tween-80 103 % of control | dose: 10.0 mg/kg/injection, schedule: Q01DX009 (ip), vehicle: saline with Tween-80 104 % of control | dose: 12.5 mg/kg/injection, schedule: Q04DX002 (ip), vehicle: saline with Tween-80 107 % of control | dose: 20.0 mg/kg/injection, schedule: Q01DX009 (ip), vehicle: saline with Tween-80 103 % of control | dose: 25.0 mg/kg/injection, schedule: Q04DX002 (ip), vehicle: saline with Tween-80 111 % of control

CCCCCC(=O)CCCC
inactive: [13] 109 % of control | [8] 102 % of control | [9] 105 % of control

c1ccc(CNCc2ccccc2)cc1
inactive: [7] 97 % of control | dose: 200.0 mg/kg/injection, schedule: Q04DX003 (ip), vehicle: Klucel (hydroxypropylcellulose) (HPC) 100 % of control

CCOc1ccc([N+](=O)[O-])cc1[N+](=O)[O-]
inactive: dose: 25.0 mg/kg/injection, schedule: Q04DX003 (ip), vehicle: saline with Tween-80 93 % of control | dose: 50.0 mg/kg/injection, schedule: Q04DX003 (ip), vehicle: saline with Tween-80 98 % of control | [14] 94 % of control

O=[C-]CC(=O)c1ccccc1.O=[C-]CC(=O)c1ccccc1.[Fe+2]
inactive: dose: 100.0 mg/kg/injection, schedule: Q01DX001 (ip), vehicle: saline with Tween-80 95 % of control | dose: 200.0 mg/kg/injection, schedule: Q01DX001 (ip), vehicle: saline with Tween-80 87 % of control | [19] 89 % of control

S=C1SCCN1C1CCCCC1
inactive: [8] 102 % of control | [14] 92 % of control | [9] 96 % of control | [15] 96 % of control | [10] 93 % of control | [16] 92 % of control

CCOC(=O)C1CC1C#N (centres undefined)
inactive: [14] 102 % of control | [15] 98 % of control | [16] 97 % of control

COc1ccc(NC(=O)Nc2cc(Cl)ccc2Cl)cc1
inactive: [9] 88 % of control | [10] 100 % of control

CC(=O)OCC1OC(n2c(Cl)nc3c(Cl)nc(N)nc32)C(OC(C)=O)C1OC(C)=O (centres undefined)
inactive: [1] 100 % of control | [2] 100 % of control | [3] 97 % of control

O=C1C(Br)=CC(Br)(Br)C=C1Br
inactive: [8] 88 % of control | [9] 91 % of control | [10] 86 % of control

Nc1ccc(-c2nc(-c3ccccc3)c(-c3ccccc3)[nH]2)cc1
inactive: dose: 12.5 mg/kg/injection, schedule: Q01DX001 (ip), vehicle: saline with Tween-80 94 % of control | dose: 25.0 mg/kg/injection, schedule: Q01DX001 (ip), vehicle: saline with Tween-80 102 % of control | dose: 50.0 mg/kg/injection, schedule: Q01DX001 (ip), vehicle: saline with Tween-80 102 % of control | [19] 87 % of control
